Experimental findings from ChEMBL document CHEMBL4130634, “Discovery of Reversible DNA Methyltransferase and Lysine Methyltransferase G9a Inhibitors with Antitumoral in Vivo Efficacy” (J Med Chem, 2018) are described below.

In general, AUC(0-t) refers to exposure summed from dosing to a finite time, without extrapolation to infinity. A low value points to low exposure. Usually IC50 stands for the concentration that gives 50% inhibition. A word on the clearance: it is a measure of how efficiently the substance is removed, as volume per time. For orientation: inhibition means the relative decrease from the control value, in per cent. What is called half-life is the time in which the quantity being followed falls by half. Read a high half-life as slow loss. For orientation: GI50 means the concentration that inhibits growth by half. Higher therefore signals lower sensitivity of the cells.

Data set [1] is described as follows: AUC (0 to 24 hrs) in RARG2-/-gammac-/- Balb/c mouse at 5 mg/kg, iv administered as single dose by LC-MS/MS analysis. The data set is classed as ADME, organism-based. More on the design: dose 5 mg/kg, time < 24 hr, route intravenous. To be noted: in vivo.
Data set [2] addresses T1, Histone-lysine N-methyltransferase EHMT2 (Homo sapiens, UniProt Q96KQ7).
T1 sequence (Q96KQ7 whole entry): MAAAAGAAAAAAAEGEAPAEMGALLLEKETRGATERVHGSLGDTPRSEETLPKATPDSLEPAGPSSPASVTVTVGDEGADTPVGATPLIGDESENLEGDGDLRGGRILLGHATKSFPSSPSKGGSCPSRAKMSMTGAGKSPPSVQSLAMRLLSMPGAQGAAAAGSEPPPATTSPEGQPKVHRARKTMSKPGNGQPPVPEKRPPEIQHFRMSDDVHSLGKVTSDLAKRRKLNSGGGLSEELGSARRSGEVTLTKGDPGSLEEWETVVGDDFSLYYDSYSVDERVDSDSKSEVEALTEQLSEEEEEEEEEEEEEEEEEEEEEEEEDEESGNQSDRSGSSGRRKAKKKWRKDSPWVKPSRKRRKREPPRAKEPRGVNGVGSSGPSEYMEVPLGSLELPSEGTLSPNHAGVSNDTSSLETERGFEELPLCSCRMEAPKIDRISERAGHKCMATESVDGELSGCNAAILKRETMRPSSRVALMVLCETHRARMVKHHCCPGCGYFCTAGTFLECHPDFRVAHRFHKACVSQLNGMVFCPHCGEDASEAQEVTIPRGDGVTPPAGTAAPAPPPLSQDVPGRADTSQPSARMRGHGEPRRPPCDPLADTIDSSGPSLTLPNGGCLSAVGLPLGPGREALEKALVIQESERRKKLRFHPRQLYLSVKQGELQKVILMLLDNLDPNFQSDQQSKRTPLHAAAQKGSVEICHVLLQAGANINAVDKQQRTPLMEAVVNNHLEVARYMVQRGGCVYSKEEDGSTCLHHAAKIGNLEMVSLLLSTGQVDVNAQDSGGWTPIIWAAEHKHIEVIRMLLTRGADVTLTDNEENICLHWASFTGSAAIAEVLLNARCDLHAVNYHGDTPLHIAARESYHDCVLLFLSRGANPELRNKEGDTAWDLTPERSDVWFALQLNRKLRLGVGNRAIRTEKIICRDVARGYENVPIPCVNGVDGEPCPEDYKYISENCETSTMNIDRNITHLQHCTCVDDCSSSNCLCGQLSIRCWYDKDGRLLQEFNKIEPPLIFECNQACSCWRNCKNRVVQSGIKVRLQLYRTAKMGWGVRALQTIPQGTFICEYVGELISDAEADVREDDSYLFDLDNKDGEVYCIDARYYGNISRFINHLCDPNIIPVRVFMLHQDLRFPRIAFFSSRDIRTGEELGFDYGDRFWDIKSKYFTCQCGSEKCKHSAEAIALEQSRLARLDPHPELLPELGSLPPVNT
Put plainly: Inhibition of human G9a using biotinylated-H3K9 peptide as substrate after 1 hr in presence of SAM by TR-FRET assay.

Data set [3] can be described thus: Clearance in RARG2-/-gammac-/- Balb/c mouse at 5 mg/kg, iv administered as single dose by LC-MS/MS analysis. The format is ADME, organism-based. Conditions: in vivo.
Data set [4] in a line: Metabolic stability in mouse liver microsomes assessed as parent compound remaining at 1 uM preincubated for 10 mins followed by NADP addition after 20 mins by LC-MS/MS analysis. Conditions: read-out: Stability. The format is ADME, microsome. On the technique in general: Microsomes from liver hold many membrane-bound enzymes, among them those of drug oxidation.
Data set [5] is described as follows: Permeability of the compound at 50 uM after 18 hrs by PAMPA. The format is ADME. To be noted: read-out: permeability. In general terms: PAMPA measures passive passage across an artificial lipid membrane.
The target of a further data set is CYP2C9 (Homo sapiens, UniProt P11712). Put plainly: Inhibition of CYP2C9 in human liver microsomes at 10 uM after 10 mins in presence of NADPH by LC-MS/MS analysis relative to control. The format is ADME.
The nature of data set [6]: Half life in mouse liver microsomes at 1 uM preincubated for 10 mins followed by NADP addition after 20 mins by LC-MS/MS analysis. The format is ADME, microsome.
Data set [7] addresses DNA (cytosine-5)-methyltransferase 1 (Homo sapiens, UniProt P26358). Put plainly: Inhibition of human DNMT1 using polydeoxyinosine polydeoxycytosine DNA as substrate after 15 mins in presence of SAM by TR-FRET assay. (TR-FRET usually uses a lanthanide donor and a delayed reading to cut background.)
For the next data set, the target named is CYP2C19 (Homo sapiens, UniProt P33261). Put plainly: Inhibition of CYP2C19 in human liver microsomes at 10 uM after 10 mins in presence of NADPH by LC-MS/MS analysis relative to control. The format is ADME.
The test system of a further data set is OCI-Ly10. Put plainly: Growth inhibition of human OCI-LY10 cells after 48 hrs by MTS assay. To be noted: OCI-Ly10, 48 h. The format is functional.
A short description of data set [8]: Half life in RARG2-/-gammac-/- Balb/c mouse at 5 mg/kg, iv administered as single dose by LC-MS/MS analysis. The format is ADME, organism-based. To be noted: in vivo.

Chain of DNA (cytosine-5)-methyltransferase 1 (P26358 whole entry): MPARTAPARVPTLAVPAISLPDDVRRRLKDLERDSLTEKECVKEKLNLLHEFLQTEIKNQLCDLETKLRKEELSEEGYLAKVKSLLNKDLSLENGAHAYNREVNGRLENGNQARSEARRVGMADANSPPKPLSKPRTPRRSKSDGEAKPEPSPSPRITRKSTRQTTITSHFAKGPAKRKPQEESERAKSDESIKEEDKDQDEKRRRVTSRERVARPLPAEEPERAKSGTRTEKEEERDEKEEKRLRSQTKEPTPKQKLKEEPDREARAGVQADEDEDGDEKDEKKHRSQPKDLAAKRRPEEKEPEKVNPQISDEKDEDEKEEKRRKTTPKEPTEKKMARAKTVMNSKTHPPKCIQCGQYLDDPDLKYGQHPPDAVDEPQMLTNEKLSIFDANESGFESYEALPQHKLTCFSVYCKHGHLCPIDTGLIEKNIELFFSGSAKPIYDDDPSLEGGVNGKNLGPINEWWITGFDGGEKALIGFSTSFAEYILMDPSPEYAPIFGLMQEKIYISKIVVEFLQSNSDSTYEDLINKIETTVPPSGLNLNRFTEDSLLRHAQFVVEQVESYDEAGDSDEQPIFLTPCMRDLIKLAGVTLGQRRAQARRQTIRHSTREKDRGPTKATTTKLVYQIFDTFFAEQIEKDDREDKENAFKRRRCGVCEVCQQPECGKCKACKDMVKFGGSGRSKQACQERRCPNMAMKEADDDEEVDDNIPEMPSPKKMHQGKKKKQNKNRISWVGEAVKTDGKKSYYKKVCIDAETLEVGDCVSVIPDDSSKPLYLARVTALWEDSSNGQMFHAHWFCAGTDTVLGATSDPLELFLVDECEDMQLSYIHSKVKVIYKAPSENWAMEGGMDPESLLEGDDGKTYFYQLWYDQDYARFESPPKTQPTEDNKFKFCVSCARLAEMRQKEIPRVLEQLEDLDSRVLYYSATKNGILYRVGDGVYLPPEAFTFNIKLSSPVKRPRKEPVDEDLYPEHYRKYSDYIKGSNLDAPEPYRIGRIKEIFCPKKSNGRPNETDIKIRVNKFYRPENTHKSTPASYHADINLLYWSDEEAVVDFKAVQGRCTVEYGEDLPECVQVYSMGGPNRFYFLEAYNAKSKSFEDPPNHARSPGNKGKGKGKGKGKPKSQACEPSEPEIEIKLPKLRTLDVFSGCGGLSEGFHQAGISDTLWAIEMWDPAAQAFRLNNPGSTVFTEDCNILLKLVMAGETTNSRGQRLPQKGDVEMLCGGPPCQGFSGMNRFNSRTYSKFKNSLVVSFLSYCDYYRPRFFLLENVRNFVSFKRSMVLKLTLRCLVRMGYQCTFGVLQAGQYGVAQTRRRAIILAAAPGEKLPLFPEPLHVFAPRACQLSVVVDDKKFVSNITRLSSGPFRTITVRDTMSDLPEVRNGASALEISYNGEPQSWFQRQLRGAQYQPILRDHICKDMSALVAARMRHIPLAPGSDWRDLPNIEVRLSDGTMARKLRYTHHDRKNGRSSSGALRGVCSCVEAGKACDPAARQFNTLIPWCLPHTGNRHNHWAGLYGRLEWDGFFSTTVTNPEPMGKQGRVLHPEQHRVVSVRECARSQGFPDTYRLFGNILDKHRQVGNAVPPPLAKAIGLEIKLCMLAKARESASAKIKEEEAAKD
Chain of CYP2C19 (P33261 whole entry): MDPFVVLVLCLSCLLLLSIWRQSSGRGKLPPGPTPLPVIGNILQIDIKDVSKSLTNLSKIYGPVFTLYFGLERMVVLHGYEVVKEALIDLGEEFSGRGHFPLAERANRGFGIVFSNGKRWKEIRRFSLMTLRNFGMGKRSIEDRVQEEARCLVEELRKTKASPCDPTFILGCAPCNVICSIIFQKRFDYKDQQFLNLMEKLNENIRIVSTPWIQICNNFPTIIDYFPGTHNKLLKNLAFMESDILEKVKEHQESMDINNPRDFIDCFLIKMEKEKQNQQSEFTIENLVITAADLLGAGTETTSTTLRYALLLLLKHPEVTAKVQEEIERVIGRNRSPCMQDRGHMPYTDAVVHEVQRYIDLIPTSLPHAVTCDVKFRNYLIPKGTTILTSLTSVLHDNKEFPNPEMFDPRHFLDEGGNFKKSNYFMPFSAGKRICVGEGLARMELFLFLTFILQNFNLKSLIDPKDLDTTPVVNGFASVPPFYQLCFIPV
Chain of CYP2C9 (P11712 whole entry): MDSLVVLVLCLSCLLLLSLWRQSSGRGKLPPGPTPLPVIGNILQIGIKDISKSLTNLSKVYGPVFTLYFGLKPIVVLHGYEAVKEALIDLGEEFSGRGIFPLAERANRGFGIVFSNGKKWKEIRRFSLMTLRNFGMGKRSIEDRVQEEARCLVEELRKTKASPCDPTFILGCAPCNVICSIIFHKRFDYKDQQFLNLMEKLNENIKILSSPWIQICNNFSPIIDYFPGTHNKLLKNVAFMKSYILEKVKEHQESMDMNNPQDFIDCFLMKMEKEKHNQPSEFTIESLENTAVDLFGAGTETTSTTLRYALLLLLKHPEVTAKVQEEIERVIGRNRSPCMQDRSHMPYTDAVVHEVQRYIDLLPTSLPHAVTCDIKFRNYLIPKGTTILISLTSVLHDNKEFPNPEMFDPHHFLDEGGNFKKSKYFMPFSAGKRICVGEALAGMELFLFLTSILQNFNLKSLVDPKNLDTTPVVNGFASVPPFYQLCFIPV

Molecule `COc1cc2c(NC3CCN(C4CC4)CC3)cc(-c3ccc(C)o3)nc2cc1OCCCN1CCCC1` registered an AUC(0-t) at 24 h in data set [1] of 8.79 µM·h. Also, the IC50 in data set [2] worked out at 0.022 µM; in data set [7], 0.413 µM. Also, in [3], the clearance is 0.9 L/h/kg. The remaining at 20 min, 1 µM in data set [4] stood at 15%. Also, the Papp at 18 h, 50 µM in data set [5] worked out at 40.4 nm/s. In addition, the inhibition at 10 min, 10 µM on CYP2C9 stood at 8%; at CYP2C19, 4%. The molecule further gave a half-life at 1 µM in [6] of 6 min. In the data set on OCI-Ly10, this molecule displayed a GI50 of 0.094 µM. This molecule also showed a half-life in [8] of 10.4 h.
